Results from patent US6962971B2, “Chemokines and methods for inducing the differentiation of fibroblasts to myofibroblasts” (The Regents of the University of California, priority 2001, dated 2005).
“Also recorded” adds a separate entry of the source. Values belong to the substance of their own block, whether it stands above or below them.

Experiments:
fibroblasts = assay: Induction of differentiation of fibroblasts to myofibroblasts by IL-8 forms; type: cell-based; settings: IL-8-77 versus IL-8-72
[1] = system: primary chicken embryonic connective tissue fibroblasts; assay: Fibroblast growth assay; type: cell-based; settings: for effect on fibroblast growth / cell numbers: 3 days treatment, 2% donor calf serum
Description: Primary chicken embryonic connective tissue fibroblasts (CEFs) were cultured as previously described in Martins-Green and Feugate (1998). Briefly, these fibroblasts were isolated from 10-day-old chicken embryo body walls, plated at 6×10^6 cells/100 mm plate and cultured for 4 days in 199 medium with 5% donor calf serum, 1% chick serum and 0.3% tryptose phosphate broth. These cultures were passaged once (secondary cultures); the cells were plated at 0.4×10^6 cells/35 mm plate in 199/tryptose phosphate broth and 2% donor calf serum.
Secondary fibroblasts were plated at 0.4×10^6 cells/35 mm plate and cCAF was added to experimental plates. For each experiment, plating efficiency was determined by trypsinizing plates four hours after plating. Cells were counted with a Coulter particle counter to confirm even plating of cells. The media was replaced approximately every 16 hr with 1 ml of […] 199 medium containing 0.3% tryptose phosphate broth and 2% donor calf serum, and 100-1000 ng cCAF [9-90 nM] or C- or N-peptide [64-640 nM] was added to the experimental plates, whereas, control plates contained media only. On day 3, plates were trypsinized to remove all cells and cells were counted using a Coulter counter. To test for specificity, anti-cCAF rabbit serum was pre-incubated with cCAF (3 μl serum/750 ng cCAF [68 nM] or N-peptide [480 nM]) for 1 hr at room temperature before being added to cells.

[2] = system: chicken CXC receptor 1 (CXCR1); assay: Chicken cCXCR1-mediated calcium release; type: cell-based; settings: NIH #373 cells overexpressing chicken CXCR1
Description: NIH #373 cells overexpressing the chicken CXC receptor 1 (CXCR1) were exposed to the full-length cCAF molecule, the 15-amino N-terminal peptide of cCAF, or the 28-amino acid C-terminal peptide and calcium release was then measured.

[3] = system: chicken chorioallantoic membrane (CAM); settings: in vivo; cited from earlier work
α-SMA [4] = assay: Immunoblotting for α-SMA in fibroblast extracts; type: cell-based, chicken
Description: Plates of fibroblasts were treated as described previously, with 750 ng/ml cCAF or 2.5 ng/ml TGFβ. To block TGFβ, or cCAF activity, anti-cCAF (3 μl) or anti-TGFβ (1 μl) antibody was pre-incubated in 1 ml media for 1 hr at room temperature before being added to cells. After 4 days of treatment, protein extracts were prepared in 1 ml 150 mM RIPA buffer containing protease inhibitors. Protein concentrations were determined using the DC protein assay kit and samples were adjusted to contain equal amounts of protein. SDS-PAGE was performed on 7.5% separating Doucet gels (Doucet and Trifaro, 1988). Protein transfer to nitrocellulose was performed using a wet-transfer apparatus (Bio-Rad) at 100V for 45 min. The membranes were blocked for 1 hr in 5% milk in TTBS and then incubated overnight at 4° C. in mouse anti-α-SMA, to a final IgG concentration of 5 μg/ml, in 1% milk in TTBS. The membranes were washed 3 times for 20 min each with TTBS, incubated in anti-mouse HRP at 1:10,000 in 1% milk for 1hr and washed as above, and the bands visualized using the ECL.

[5] = system: fibroblast-seeded collagen gels; assay: Collagen gel contraction by fibroblasts; type: cell-based, chicken
Description: 1.5 ml Vitrogen 100 collagen gels were made in 35 mm plates. Secondary fibroblasts were plated at 0.4×10^6 cells/35 mm plate on top of the gels. After the cells had adhered to the collagen, cCAF was added to experimental plates. The medium was replaced approximately every 16 hr with 1 ml of 199 supplemented with 0.3% tryptose phosphate broth and 2% donor calf serum, and 750 ng cCAF [68 nM] or N-peptide [480 nM] was added to the experimental plates. Control plates contained media only. After 4 days, gels were released. Treatment was continued for 2 more days and gels were photographed every 12 hours. The photographs were used for evaluation of gel contraction by determining the area of the gel using NIH image analysis.

[6] = system: Full-thickness excision wounds on the underside of the wings of 2-week-old chicks; assay: Wounding experiment: closure of excision wounds; type: in vivo, chicken; settings: 1 μg every other day, topical; versus vehicle (H2O) on contralateral wing
Description: Full-thickness excision wounds (approximately 0.5×0.5 cm) were made, using a scalpel blade, on the underside of the wings of 2-week-old chicks. The left wing was treated with vehicle alone (water), and the right wing with […] cCAF [90 nM]. The wounds were photographed immediately after wounding and then covered with Biocclusive bandage. 50 μl vehicle (water) or cCAF was deposited through the bandage onto the wound using a 30-gauge needle. This procedure was repeated the next day and every other day thereafter. On days 3, 5 and 7, the bandages were removed and the wounds were photographed before replacing the bandages and applying the treatment again.

α-SMA [7] = assay: Immunostaining for α-SMA in fibroblast cultures and collagen gel sections; type: cell-based, chicken; settings: versus control gels
Description: Plates of fibroblasts were treated with cCAF as described previously. After 4 days, the cells were rinsed with PBS, fixed in 4% paraformaldehyde, permeabilized with 0.15% Triton X-100 and incubated with PBS containing 0.1M glycine for 10 min. Cells were blocked for 30 min with 10% goat serum in PBS, incubated with mouse anti-α-SMA, to a final IgG concentration of 20 μg/ml, in 1% BSA/PBS for 1hr at room temperature (RT), and washed three times with 0.1% BSA/PBS for 10 min each. The cells were then incubated in goat anti-mouse FITC or sheep anti-mouse Texas Red (1:100) in 1% BSA/PBS for 1 hr at RT, washed three times for 10 min with 0.1% BSA in PBS and mounted with Vectashield. Collagen gels were rinsed with PBS, fixed in 4% paraformaldehyde for 2 hr, washed three times 30 min each with PBS, and incubated for an additional 30 min in PBS containing 0.1M glycine. This treatment was followed by incubation at 4° C. overnight in 15% sucrose and then incubated under the same conditions in 30% sucrose. After a brief rinse with PBS, the gels were frozen in OCT, sections prepared and collected on gelatin-coated slides, rinsed with PBS, fixed in 4% paraformaldehyde for 10 min, and then incubated again in PBS containing 0.1M glycine for 10 min. This was followed by blocking for 30 min with 10% goat serum in PBS, incubation in primary and secondary antibody as described above, and mounting with Vectashield.

Substance: IL-8-77: 77-residue form of human interleukin-8, SEQ ID NO:4
potency at inducing differentiation of fibroblasts to myofibroblasts, relative to the other IL-8 form (fibroblasts): more potent at inducing differentiation of fibroblasts to myofibroblasts

calcium release ([2]; 400 ng): failed to induce calcium release
Substance: C-peptide: 28-amino acid peptide extending from residues 59-86 of cCAF (SEQ ID NO:2) (CLDPTAPWVQLIVKALMAKAQLNSDAPL; Gallusgallus) [reference compound]
effect on fibroblast growth / cell numbers [1]: did not suppress the growth of connective tissue fibroblasts | effect on fibroblast growth / cell numbers ([1]; listed as C-terminal peptide): did not cause a decrease in cell numbers | calcium release ([2]; 800 ng): release of calcium that was similar in magnitude, but differed in time course from the N-peptide-induced release | angiogenic activity of the peptide by itself [3]: angiogenic in vivo

Substance: TGFβ: Transforming Growth Factorβ-1, known stimulator of myofibroblast differentiation [reference compound]
α-SMA expression after TGFβ treatment (α-SMA [4]; 2.5 ng/ml): stimulation of α-SMA

calcium release ([2]; 400 ng): similar, albeit somewhat slower, release
Substance: LSQGRTLVKMGNELR (Gallusgallus) [N-peptide, 15-amino acid N-terminal peptide of cCAF]
effect on fibroblast growth / cell numbers [1]: suppresses the growth of fibroblasts to a level similar to that caused by the whole cCAF molecule; also recorded: decrease in growth similar to that induced by cCAF | dose- and time-dependent pattern of suppression of growth ([1]; compared with whole cCAF, not shown): same as that of the whole cCAF molecule, albeit at a higher molar concentration | contraction of collagen gels after release ([5]; 750 ng/ml, 4-5 days treatment before release, versus untreated cells): much greater contraction; also recorded: stimulated fibroblasts to contract collagen gels more efficiently than untreated cells; also recorded: contracted the gels more tightly than did untreated cells | contraction of fibroblast clusters on collagen ([5]; versus control cells): form clusters that are much tighter and generally pull away from the collagen; also recorded: more contracted than clusters in control cells | wound closure at day 3 (days 0-3) [6]: accelerated wound closure during days 0-3, albeit less strongly than with the whole cCAF molecule | α-SMA immunolabeling of sections of fibroblast-seeded collagen gels (α-SMA [7]): more cells with fibers staining for α-SMA than control gels | α-SMA levels by immunoblot (α-SMA [4]; 750 ng/ml, versus untreated or C-peptide treated cells): much higher levels of α-SMA; also recorded: increased levels of α-SMA
